From ChEMBL document CHEMBL4041510, “Design, synthesis, and biological evaluation of structurally modified isoindolinone and quinazolinone derivatives as hedgehog pathway inhibitors” (Eur J Med Chem, 2017) come the findings set out here.

Data set [1] in a line: Inhibition of hedgehog signaling pathway in mouse NIH/3T3 cells measured after 24 hrs by Gli-dual luciferase reporter gene assay. It is filed as cell-based. The note with it: NIH3T3, 24 h. Background: A reporter such as luciferase makes a cellular process visible.
The next data set has as its system NIH3T3. In words: Cytotoxicity against mouse NIH/3T3 cells assessed as cell viability by MTS assay. The data set is classed as cell-based. On the technique in general: Formazan colour is commonly taken as a measure of viable cells.
The species entered for data set [2] is Mus musculus. Kind of data set: Inhibition of hedgehog signaling pathway in mouse NIH/3T3 cells assessed as inhibition of hedgehog-induced Smo-EGFP ciliary translocation by DAPI staining based confocal microscopic analysis. It is filed as cell-based.
Data set [3] is described as follows: Metabolic stability in human liver microsomes assessed as compound remaining at 1 uM preincubated for 5 mins followed by NADPH addition measured after 30 mins by LC-ESI/MS/MS analysis relative to control. The data set is classed as ADME, microsome. Conditions: read-out: Stability. In general terms: Liver microsomes are a subcellular fraction often used to study metabolism.

Data set [4] is filed under the species Mus musculus. In words: Selectivity ratio of IC50 for hedgehog signaling pathway in mouse NIH/3T3 cells harboring Smo D477H mutant to IC50 for hedgehog signaling pathway in mouse NIH/3T3 cells expressing wild type Smo. The data set is classed as cell-based.
Data set [5] is described as follows: Inhibition of hedgehog signaling pathway in mouse NIH/3T3 cells expressing wild type Smo assessed as reduction in Gli mRNA expression by RT-PCR method. The data set is classed as cell-based. Conditions: NIH3T3.
A short description of data set [6]: Metabolic stability in human liver microsomes assessed as compound remaining at 1 uM preincubated for 5 mins followed by UDPGA addition measured after 30 mins by LC-ESI/MS/MS analysis relative to control. Conditions: read-out: Stability. It is filed as ADME, microsome.
A short description of data set [7]: Inhibition of hedgehog signaling pathway in mouse NIH/3T3 cells harboring Smo D477H mutant assessed as reduction in Gli mRNA expression by RT-PCR method. It is filed as cell-based. Conditions: NIH3T3.
Data set [8] in a line: Metabolic stability in human liver microsomes assessed as compound remaining at 1 uM in absence of NADPH incubated for 5 mins by LC-ESI/MS/MS analysis relative to control. The data set is classed as ADME, microsome. Conditions: read-out: Stability.
For data set [9], the species on record is Mus musculus. In words: Inhibition of hedgehog signaling pathway expressed in mouse NIH/3T3 cells assessed as inhibition of hedgehog-induced Gli-2 accumulation at tip of primary cilia by DAPI staining based confocal microscopic analysis. The data set is classed as cell-based.
A short description of data set [10]: Metabolic stability in human liver microsomes assessed as compound remaining at 1 uM in absence of UDPGA incubated for 5 mins by LC-ESI/MS/MS analysis relative to control. It is filed as ADME, microsome. The note with it: read-out: Stability.
The species entered for data set [11] is Mus musculus. Kind of data set: Inhibition of hedgehog signaling pathway in Ptch deficient MEF assessed as downregulation of Gli-1 expression by Immunoblot analysis.

The source made the active and inactive calls. The calls are words filed in the database; no cut-off is given here.

Broadly, the IC50 is the concentration that gives 50% inhibition.

In data set [1], `C[C@@H]1CN(c2cc(N3Cc4c(cccc4-c4ccc(OC(F)(F)F)cc4)C3=O)ncn2)C[C@H](C)O1` had an IC50 of 1140 nM. Moreover, the Activity in the data set with NIH3T3 was above 20 µM.

As to `O=c1c2cccc(-c3ccc(OC(F)(F)F)cc3)c2ncn1CCN1CCOCC1`, the IC50 in data set [1] was 6600 nM. The Activity in the data set with NIH3T3 was above 20 µM.

`O=c1c2cccc(-c3ccc(OC(F)(F)F)cc3)c2ncn1-c1ccc(N2CCOCC2)cc1` showed an IC50 in data set [1] of 4520 nM. In addition, the Activity with NIH3T3 was above 20 µM.

In data set [1], `O=c1c2cccc(Cl)c2ncn1-c1ccc(N2CCOCC2)nc1` had an IC50 of 15300 nM. In the data set on NIH3T3, the Activity is above 20 µM.

In [1], `C[C@@H]1CN(c2cc(-n3cnc4c(Cl)cccc4c3=O)ncn2)C[C@H](C)O1` gave an IC50 of 1240 nM. In the data set on NIH3T3, the Activity was above 20 µM.

Regarding `Cc1c(C(=O)Nc2ccc(N3C[C@@H](C)O[C@@H](C)C3)nc2)cccc1-c1ccc(OC(F)(F)F)cc1` [SONIDEGIB], the inhibition entry in the data set listed under Mus musculus [2] and in the data set filed under Mus musculus [9] was “Active” throughout. For the same molecule, the results for the remaining at 0.5 h, 1 µM in data set [3] and in data set [6] were 68% and 88.4%, respectively. For the same molecule, the Ratio IC50 in the data set listed under Mus musculus [4] was 5.16. Besides, the IC50 in [5] worked out at 4.4 nM; in data set [1], 6 nM; in data set [7], 22.7 nM. In addition, the Activity in the data set with NIH3T3 is above 20 µM. Besides, the remaining at 5 min, 1 µM worked out at 99.7% in [8] and 89.5% in data set [10].

As to `C[C@@H]1CN(c2ccc(-n3cnc4c(-c5ccc(OC(F)(F)F)cc5)cccc4c3=O)nc2)C[C@H](C)O1`, half-maximal inhibition in data set [1] (IC50) required 196 nM. Also, the Activity with NIH3T3 was above 20 µM.

For the molecule `C[C@@H]1CN(c2ccc(N3Cc4c(cccc4-c4cccnc4)C3=O)cn2)C[C@H](C)O1`, in data set [1], the IC50 was 7690 nM. Also, in the data set on NIH3T3, the Activity was above 20 µM.

Take `C[C@@H]1CN(c2cc(-n3cnc4c(-c5ccc(OC(F)(F)F)cc5)cccc4c3=O)ncn2)C[C@H](C)O1`: the IC50 in data set [1] was 44200 nM. Also, the Activity with NIH3T3 was above 20 µM.

In data set [1], `CC1CCN(c2cc(-n3cnc4c(-c5ccc(OC(F)(F)F)cc5)cccc4c3=O)ncn2)CC1` showed an IC50 of 7700 nM. Besides, the Activity with NIH3T3 is above 20 µM.

In the case of `Cc1cc(=O)oc2cc(O)ccc12` [HYMECROMONE], the remaining at 0.5 h, 1 µM in data set [6] is 0.46%. In addition, the remaining at 5 min, 1 µM in data set [10] was 92.2%.

With `CS(=O)(=O)c1ccc(C(=O)Nc2ccc(Cl)c(-c3ccccn3)c2)c(Cl)c1` [VISMODEGIB], the inhibition result in the data set filed under Mus musculus [2] and in the data set listed under Mus musculus [9] was “Active” throughout. Moreover, the Ratio IC50 in the data set filed under Mus musculus [4] was 82.7. Further, the values for the IC50 in data set [5], in data set [1] and in [7] were 14.4 nM, 5 nM and 1200 nM, respectively.

In [1], `O=c1c2cccc(Cl)c2ncn1-c1ccc(N2CCOCC2)cc1` displayed an IC50 above 20000 nM. The Activity with NIH3T3 was above 20 µM.

Take `O=C1CC2(CCCC2)CC(=O)N1CCCCN1CCN(c2ncccn2)CC1` [BUSPIRONE]: in [3], the remaining at 0.5 h, 1 µM turned out to be 5.17%. Besides, the remaining at 5 min, 1 µM in [8] was 96.7%.

For `C[C@@H]1CN(c2ccc(-n3cnc4c(-c5ccccc5)cccc4c3=O)cn2)C[C@H](C)O1`, the inhibition result in the data set listed under Mus musculus [11], in the data set listed under Mus musculus [2] and in the data set listed under Mus musculus [9] was “Active” each time. The remaining at 0.5 h, 1 µM in [3] was determined as 68.2%; in data set [6], 91%. In the data set listed under Mus musculus [4], the Ratio IC50 is 0.355. Further, the IC50 in [5] is 257 nM; in data set [1], 38 nM; in [7], 91.1 nM. In the data set with NIH3T3, the Activity was above 20 µM. For the same molecule, the remaining at 5 min, 1 µM in data set [8] stood at 83.7%; in data set [10], 93.1%.

Take `O=c1c2cccc(-c3ccc(OC(F)(F)F)cc3)c2ncn1CCCn1ccnc1`: the IC50 in data set [1] came to 5280 nM. In addition, in the data set with NIH3T3, the Activity is above 20 µM.

`O=c1c2cccc(-c3ccccc3)c2ncn1-c1ccc(N2CCOCC2)cc1` yielded an IC50 in data set [1] of 132 nM. In addition, the Activity in the data set on NIH3T3 was above 20 µM.

Molecule `C[C@@H]1CN(c2ccc(-n3cnc4c(-c5cccc6ccccc56)cccc4c3=O)cn2)C[C@H](C)O1` returned an IC50 in data set [1] of 439 nM. The Activity in the data set with NIH3T3 is above 20 µM.

`C[C@@H]1CN(c2ccc(-n3cnc4c(-c5ccc(S(C)(=O)=O)cc5)cccc4c3=O)cn2)C[C@H](C)O1` yielded an IC50 in data set [1] of 430 nM. For the same molecule, the Activity in the data set with NIH3T3 was above 20 µM.

In turn, `C[C@@H]1CN(c2ccc(N3Cc4c(cccc4-c4ccc(F)cc4F)C3=O)cn2)C[C@H](C)O1` registered a half-maximal inhibitory concentration (IC50) in [1] of 1710 nM. In the data set with NIH3T3, the Activity is above 20 µM.

Molecule `C[C@@H]1CN(c2ccc(-n3cnc4c(-c5ccc(OC(F)(F)F)cc5)cccc4c3=O)cn2)C[C@H](C)O1` gave an IC50 in data set [1] of 159 nM. In addition, the Activity with NIH3T3 was above 20 µM.

`C[C@@H]1CN(c2ccc(N3Cc4c(cccc4-c4ccc(OC(F)(F)F)cc4)C3=O)cn2)C[C@H](C)O1` had an IC50 in [1] of 1800 nM. Further, the Activity with NIH3T3 was above 20 µM.

`COc1ccc(-c2cccc3c(=O)n(-c4ccc(N5C[C@@H](C)O[C@@H](C)C5)nc4)cnc23)cc1`: in [1], the IC50 came to 196 nM. Moreover, the Activity with NIH3T3 is above 20 µM.

Consider `C[C@@H]1CN(c2ccc(-n3cnc4c(Cl)cccc4c3=O)cn2)C[C@H](C)O1`, for which the IC50 in data set [1] came out at 7490 nM. The Activity in the data set with NIH3T3 is above 20 µM.

For `COc1cccc(-c2cccc3c(=O)n(-c4ccc(N5CCOCC5)cc4)cnc23)c1`, half-maximal inhibition in data set [1] (IC50) required 433 nM. The Activity with NIH3T3 was above 20 µM.

`C[C@@H]1CN(c2ccc(-n3cnc4c(-c5ccc(F)cc5)cccc4c3=O)cn2)C[C@H](C)O1`: the inhibition entry in the data set listed under Mus musculus [11], in the data set listed under Mus musculus [2] and in the data set listed under Mus musculus [9] was “Active” throughout. The remaining at 0.5 h, 1 µM worked out at 76.3% in data set [3] and 83.5% in data set [6]. In addition, the Ratio IC50 in the data set filed under Mus musculus [4] was found to be 2.16. For the same molecule, the IC50 worked out at 114 nM in data set [5], 118 nM in data set [1] and 246 nM in data set [7]. In addition, in the data set on NIH3T3, the Activity is above 20 µM. The remaining at 5 min, 1 µM in data set [8] worked out at 91.3%; in data set [10], 83.2%.

`CC1CCN(c2ccc(-n3cnc4c(-c5ccc(OC(F)(F)F)cc5)cccc4c3=O)cn2)CC1` yielded an IC50 in [1] of 847 nM. In the data set with NIH3T3, the Activity was above 20 µM.

In data set [1], `Cc1ccc(-c2cccc3c(=O)n(-c4ccc(N5C[C@@H](C)O[C@@H](C)C5)nc4)cnc23)cc1` had an IC50 of 305 nM. In addition, in the data set with NIH3T3, the Activity is above 20 µM.

As to `O=c1c2cccc(Cl)c2ncn1-c1ccc(F)cc1`, the IC50 in data set [1] was 269 nM. Further, in the data set with NIH3T3, the Activity is above 20 µM.

Regarding `O=c1c2cccc(-c3ccc(OC(F)(F)F)cc3)c2ncn1-c1ccc(N2CCOCC2)nc1`, inhibition in data set [1] was half-maximal at 5410 nM (IC50). Besides, the Activity in the data set on NIH3T3 is above 20 µM.
